Results published in patent US20260284041A1, “PREVENTIVE OR THERAPEUTIC AGENT FOR NEURODEGENERATIVE DISEASE” (MEDILABO RFP, INC., priority 2023, published 2026).
Values after ≈ are worked out from the molar mass of the structure shown.

Legend:
C9orf72 HRE-derived RNAs = details: in vitro; cited from earlier work
PKR = details: reported in NPL 31; cited from earlier work
[1] = cited from earlier work
FTD/ALS model mice [2] = assay: Morris water maze test after nasal rifampicin and/or resveratrol (Test Example 2); assay type: in vivo, mouse; details: 1 month, 7- to 8-month-old mice, single agents 0.04 mg/day, combination 0.02 mg + 0.02 mg/day, FIG. 10
Text: FVB/NJ-Tg(C9orf72)500Lpwr/J mice (FTD/ALS model mice) were purchased from The Jackson Laboratory (Bar Harbor, ME, USA). The mouse strain was generated as a model for the C9orf72-associated FTD/ALS expressing the human C9orf72 gene with about 500 hexanucleotide (GGGGCC) repeats using a bacterial artificial chromosome (BAC) vector. Transgenic (Tg) mice were crossed with wild-type FVB/NJcl mice, and the transgene was maintained as a heterozygote at our animal facility.
(§1) Age-matched non-Tg […] mates received only CMC.
After administration for one month, the cognitive function of the mice was assessed in the Morris water maze test as described above.

FTD/ALS model mice [3] = assay: Immunohistochemical analysis of brain sections (Test Example 2); assay type: in vivo, mouse; details: single agents 0.04 mg/day, combination 0.02+0.02 mg/day, nasal 1 month
Description: as §1
After the behavioral test, each group was divided into two groups: one for immunohistochemical analysis and the other for future biochemical analysis. Immunohistochemical staining was performed as described above. For staining of double-stranded RNA-dependent protein kinase (PKR), phosphorylated TDP-43, synaptophysin, sections were boiled in 10 mM citrate buffer solution (pH6) for 30 min to expose the antigens. The sections were blocked overnight with 10% calf serum, and then the resultant sections were stained with antibodies for DNA/RNA G-quadruplex (BG4; Absolute antibody, Cleveland, UK), phospho-PKR (Thr446) (MilliporeSigma, Burlington, MA, USA), poly-GA, poly-GP (Cosmo Bio Co., Ltd., Tokyo, Japan), pSer409/410-TDP-43 (Cosmo Bio Co., Ltd.), and synaptophysin (SVP-38; Sigma-Aldrich, St. Luis, MO, USA). Only synaptophysin was stained with a biotin-labeled secondary antibody (Vector Laboratories, Burlingame, CA, USA), a horseradish peroxidase (HRP)-labeled avidin-biotin complex (Vector Laboratories), HRP substrate, diaminobenzidine (DAB), or an FITC-labeled secondary antibody (The Jackson Laboratory). […] Neuropathologies were evaluated by measuring the staining intensity or area or by counting positive puncta or cells in a constant area in each photograph using NIH ImageJ software.

BDNF = details: stated in discussion, no method given; cited from earlier work
[4] = tested on: (GGGGCC)4 oligonucleotides; assay: Gel shift assay for G-quadruplex; assay type: biochemical; details: 1 mM rifampicin, 5 μM DNA, 100 mM KCl; FIG. 8A
Description: The gel shift assay to detect G-quadruplex formation was performed. Sense (GGGGCC)4, antisense (GGCCCC)4, and Control (ATGC)6 oligonucleotides were synthesized and solubilized to 100 μM in 0.89 M of Tris-borate buffer, pH8.3 containing 0.02 M of EDTA (TBE). […] The mixtures were incubated at 98° C. for 3 min and slowly cooled to room temperature. The samples were mixed with Blue/Orange Loading Dye (Promega Corporation, Madison, WI, USA) and subjected to native PAGE with 20% polyacrylamide gel (Novex TBE Gels, Invitrogen, Carlsbad, CA, USA) and TBE running buffer containing 50 mM KCl. The gels were stained with SYBR Gold nucleic acid gel stain (Invitrogen) for 10 min, and images were acquired using an ImageQuant LAS 500 image analyzer (GE Healthcare, Hino, Japan).

[5] = tested on: FTD/ALS model mice (C9-500 mice); assay: Morris water maze test after nasal rifampicin (Test Example 1); assay type: in vivo, mouse; details: nasal 0.1 mg/day for 1 month; Tg mice 4.5 to 5 months old at start; vs CMC-treated Tg (p=0.0271, FIG. 4)
Text: FVB/NJ-Tg(C9orf72)500Lpwr/J mice were purchased from The Jackson Laboratory (Bar Harbor, ME, USA). The mouse strain was generated as a model for the C9orf72-linked FTD/ALS expressing the human C9orf72 gene with 500 hexanucleotide (GGGGCC) repeats (hereinafter, it is also described as “FTD/ALS model mice”) using a bacterial artificial chromosome (BAC) vector. Transgenic (Tg) mice were crossed with wild-type FVB/NJcl mice, and the transgene was maintained as a heterozygote at the animal facility in our company.
The cognitive function of the mice was assessed in a Morris water maze test at the age of 4.5 months, and the motor function of the mice was assessed in the rotarod and inverted screen tests at the age of 4.5 months and at the age of 12 months in an above-described manner.
(§2) 4-and-a half to 5-month-old FTD/ALS model mice were divided into two groups. […] Non-Tg littermates were treated with CMC alone. […] After the behavioral test, each group was divided into two groups: one group for immunohistochemical analysis and the other group for future biochemical analysis. For immunohistochemical analysis, brain sections were prepared as described above, while for biochemical analysis, whole brains were removed and frozen at −80° C. until use.

[6] = tested on: FTD/ALS model mice (C9-500 mice); assay: Double staining for RNA foci and cytoplasmic inclusions (Test Example 1); assay type: in vivo, mouse; details: PFC and MC; nasal 0.1 mg/day for 1 month; FIG. 6
Text: To examine the formation of nuclear and cytoplasmic inclusions, the sections were double stained with antibodies to G-quadruplex and hnRNP H1 (Proteintech, Rosemont, IL, USA) without pretreatment for RNA foci, and pSer409/410-TDP-43 and amyloidogenic protein oligomers (F11G3; Sigma-Aldrich) after pretreatment at pH6 for TDP-43 oligomer inclusions. For DPR inclusions, the sections were double-stained with antibodies to poly-GA, poly-GP, poly-GR, and SQSTM1/p62 (A-6; Santa Cruz Biotechnology, Dallas, TX, USA) without pretreatment. After staining, FITC- and rhodamine-labeled secondary antibodies (Jackson Laboratory) were used. The specimens were then treated with TrueBlack Plus Lipofuscin (Biotium, Fremont, CA, USA) to quench the autofluorescence and mounted using a Vectashield vibrance antifade mounting medium with DAPI (Vector Laboratories). Images of the stained sections were taken with a BZ-X800 fluorescence microscope, and cells having inclusion bodies were counted in a certain area.
as §2

phospho-PKR (Thr446) = assay: Immunohistochemical studies of phosphorylated PKR (Test Example 1); assay type: in vivo, mouse; details: PFC and MC; nasal 0.1 mg/day for 1 month; FIG. 8B
Description: as §2

CC(=O)O.N [ammonium acetate]
RNA gelation and RNA foci formation (C9orf72 HRE-derived RNAs): inhibited

COc1cccc2c1C(=O)c1c(O)c3c(c(O)c1C2=O)C[C@@](O)(C(=O)CO)C[C@@H]3O[C@H]1C[C@H](N)[C@H](O)[C@H](C)O1 [doxorubicin]
RNA gelation and RNA foci formation (C9orf72 HRE-derived RNAs): inhibited

CN(C)C(=N)N=C(N)N [metformin]
RAN translation / PKR phosphorylation and phenotype of C9-500 mice (PKR): suppress RAN translation by suppressing PKR phosphorylation

Oc1ccc(/C=C/c2cc(O)cc(O)c2)cc1 [resveratrol, 3,5,4′-trihydroxy-trans-stilbene]
solubility in water [1]: 30 µg/mL (≈ 131 µM)
cognitive function, Morris water maze (FTD/ALS model mice [2]): significantly improved
synaptophysin levels (synaptic loss) (FTD/ALS model mice [3]; hippocampus CA2-3 region and dentate gyrus (DG), FIG. 11): significantly restored
levels of G-quadruplex (FTD/ALS model mice [3]; prefrontal cortex, FIG. 12): significantly reduced
levels of phosphorylated PKR (FTD/ALS model mice [3]; prefrontal cortex, FIG. 13): significantly reduced
levels of poly-GA and poly-GP (FTD/ALS model mice [3]; prefrontal cortex, FIG. 14): significantly reduced
levels of phosphorylated TDP-43 (FTD/ALS model mice [3]; prefrontal cortex, FIG. 15): significantly reduced
expression of BDNF in the mouse brains (BDNF): elicited

CO[C@H]1/C=C/O[C@@]2(C)Oc3c(C)c(O)c4c(O)c(c(/C=N/N5CCN(C)CC5)c(O)c4c3C2=O)NC(=O)/C(C)=C\C=C\[C@H](C)[C@H](O)[C@@H](C)[C@@H](O)[C@@H](C)[C@H](OC(C)=O)[C@@H]1C [rifampicin, 3-(4-Methylpiperazinyliminomethyl)rifamycin SV]
inhibition of G-quadruplex formation [4]: failed to inhibit
memory performance (cognitive function), water maze test [5]: significantly improved
cognitive function, Morris water maze (FTD/ALS model mice [2]): improved the cognitive function in the mice, but the effect was incomplete and not significant
DPR cytoplasmic inclusions (DPRs and p62 double positive) [6]: significantly attenuated
TDP-43 oligomer cytoplasmic inclusions (pTDP-43 and F11G3 double positive) [6]: significantly attenuated
formation of RNA foci (G-quadruplex and hnRNP H double positive) [6]: significantly attenuated
levels of phosphorylated PKR (phospho-PKR (Thr446)): significantly attenuated
